Source: US20250057971A1, “TARGETED SAPONIN-NUCLEIC ACID CONJUGATES FOR TREATMENT OF MUSCLE WASTING DISORDERS” (SAPREME TECHNOLOGIES B.V., priority 2021, published 2025)
In the oligonucleotide strings, read from the 5' end, every base follows the letter of its sugar. An asterisk marks phosphorothioate; unmarked linkages are phosphodiester. Other units and linkages are bracketed, terminal groups are in braces. A string of capitals states the bases alone. m = 2'-O-methyl

Columns and labels:
dystrophin exon 51 = assay: Exon 51 skip analysis in differentiated human myotubes from a non-DMD (healthy) donor (KM155); assay type: cell-based; conditions: alone or + 4 μM SO1861-EMCH (see label), 72 hrs
Procedure: Immortalized human myoblasts from non-DMD donors (KM155) and myoblasts from a DMD-affected donor (DM8036) were cultured in Skeletal Muscle Cell Growth Medium (PromoCell, Germany) with supplementary pack according to manufacturer's instructions, further supplemented with 15% fetal bovine serum (Gibco, United Kingdom) and 0.5% gentamicin (Sigma-Aldrich, USA). For differentiation, cells were seeded on a 0.5% gelatin-coated surface, and at ˜70-80% confluence, the proliferation medium was replaced by DMEM (Gibco) supplemented with 2% FBS (Gibco), 2% GlutaMAX, and 1% glucose (Sigma-Aldrich) and 0.5% gentamycin. Treatments were started after at least 3 days up to a maximum of 5 days of differentiation (based on the presence of differentiated myotubes).
RNA was isolated with the TRIsure Isolation Reagent (Bioline) and chloroform extraction; isopropanol precipitation of RNA from the aqueous phase was performed as known to someone skilled in the art. For cDNA synthesis, 1000 ng of total RNA was used and diluted in an appropriate amount of RNase-free water to yield 8 μl RNA dilution. The priming premixed contained 1 μl dNTP mix (10 mM each) and 1 μl specific reverse primer (for KM155, h53R 5′-[…]-3′ [SEQ ID NO: 5]; for DM8036, h55R 5′-[…]-3′ [SEQ ID NO: 6]). This mixture was heated for 5 min at 70° C., then chilled on ice for at least 1 min. A reaction mixture was prepared containing 0.5 μl rRNasin (Promega), 4.0 μl RT buffer, 1.0 μl Tetro RT (Bioline), and 4.5 μl RNase-free water, and was added to the chilled mixture to yield a total volume of 20 μl per reaction. The RT-PCR was run for 60 min at 42° C., then 5 min at 85° C., and chilled on ice. For skip analysis, a nested PCR approach was followed. To this end, in the first PCR, 3 μl cDNA were added to a mix of 2.5 μl 10×SuperTaq PCR buffer, 0.5 μl dNTP mix (10 mM each), 0.125 μl Taq DNA polymerase TAQ-RO (5 U/μl; Roche) 16.875 μl RNase-free water and 1 μl ([…]) of each primer flanking the targeted exons were used: for KM155, h48F 5′-[…]-3′ [SEQ ID NO: 7] and h53R 5′-[…]-3′ [SEQ ID NO: 5]; for DM8036, h47F2 5′-[…]-3′ [SEQ ID NO: 8] and h54R 5′-[…]-3′ [SEQ ID NO: 9]. These samples were subjected to a PCR run of 5 min at 94° C., then 25 cycles with 40 sec at 94° C., 40 sec at 60° C., 180 sec at 72° C., after which for 7 min at 72° C. For the second PCR, 1.5 μl PCR1 sample were added to a mix of 5 μl 10×SuperTaq PCR buffer, 1 μl dNTP mix (10 mM each), 0.25 μl Taq DNA polymerase TAQ-RO (5 U/μl; Roche), 38.25 μl RNase-free water and 2 μl ([…]) of each primer flanking the targeted exons were used: for KM155, h49F 5′-[…]-3′ [SEQ ID NO: 10] and h52R2 5′-[…]-3′ [SEQ ID NO: 11]; for DM8036, h47F 5′-[…]-3′ [SEQ ID NO: 12] and h53R 5′-[…]-3′ [SEQ ID NO: 13]. These samples were subjected to a PCR run of 5 min at 94° C., then 32 cycles with 40 sec at 94° C., 40 sec at 60° C., 60 sec at 72° C., after which for 7 min at 72° C. Exon skipping levels were quantified with the Femto Pulse System using the Ultra Sensitivity NGS Kit (Agilent), according to the manufacturer's instructions. Alternatively, the specific PCR fragments were analyzed using Bioanalyzer 2100 with DNA1000 chip (lab-on-a-chip; Agilent), or separated on 2% agarose gels run at 120 V. Gels were imaged and band intensities were quantified using ImageJ. The expected non-skipped product has a size of 408 bp (KM155) and 475 bp (DM8036), and the skip product of 175 bp (KM155) or 242 bp (DM8036), respectively.
Immortalized human myoblasts from non-DMD donors (KM155) were cultured as described above in the Methods (as performed in Examples 1-6).
RNA was isolated with the TRIsure Isolation Reagent (Bioline) and chloroform extraction; isopropanol precipitation of RNA from the aqueous phase was performed as known to someone skilled in the art. […]

dystrophin exon 23 = assay: Exon 23 skip analysis in differentiated murine C2C12 myotubes; assay type: cell-based, mouse
Procedure: Murine myoblast cell line C2C12 was maintained in 10% FBS DMEM medium+Pen/Strep and plated at 240,000 cells per well (cpw) in 24-well plates or 40,000 cpw in 96-well plates (wp) in maintenance medium (10% FBS in DMEM medium+Pen/Strep) and incubated at 37° C. with 5% CO2. Twenty-four hours after seeding, cells were switched to differentiation media (2% horse serum in DMEM) and incubated for 3 days before refreshing the medium. After another 24 hours, medium was refreshed again and compounds were added and incubated for 48 hours. Differentiation medium was then refreshed (without compounds), and cells were incubated for another 24 hours. At 72 hours total post treatment, cells in the 24-wp were harvested for exon skip analysis and the cell viability was assessed on the 96-wp.
For analysis of skip from murine cell lines, cells were harvested and RNA was isolated using 0.5 ml TRIzol™ Reagent (Thermo Scientific) per sample, according to the manufacturer's instruction. […] Samples were mixed with 2 μl 6×loading buffer, then 16 μl were loaded onto an 2% agarose gel and ran for 60-90 min at 80 V. Gels were imaged and band intensities were quantified with a ChemiDoc™ XRS+System and Image Lab™ Software (BioRad). […]

DMD-ASO: 2′O-methyl-phosporothioate antisense oligonucleotide 5′-UCAAGGAAGAUGGCAUUUCU-3′ (SEQ ID NO: 1); exon 51 skipping of human dystrophin; same sequence and chemistry as drisapersen (antisense mU*mC*mA*mA*mG*mG*mA*mA*mG*mA*mU*mG*mG*mC*mA*mU*mU*mU*mC*mU; further chemistry not fully specified)
% exon skipping (Lab-on-a-chip) (dystrophin exon 51; 0.08 μM DMD oligo): 0%
% exon skipping (Lab-on-a-chip) (dystrophin exon 51; 0.31 μM DMD oligo): 0%
% exon skipping (Lab-on-a-chip) (dystrophin exon 51; 1.25 μM DMD oligo): 0%
% exon skipping (Lab-on-a-chip) (dystrophin exon 51; 5 μM DMD oligo): 1%

DMD-PMO: PMO 5′-CTCCAACATCAAGGAAGATGGCATTTCTAG-3′ (SEQ ID NO: 2); exon 51 skipping of human dystrophin; same sequence but not 5′-modifications as eteplirsen (all phosphorodiamidate morpholino (PMO))
% exon skipping (Femto) (dystrophin exon 51; 0.08 μM DMD oligo): 0%
% exon skipping (Femto) (dystrophin exon 51; 0.31 μM DMD oligo): 0%
% exon skipping (Femto) (dystrophin exon 51; 1.25 μM DMD oligo): 0%
% exon skipping (Femto) (dystrophin exon 51; 5 μM DMD oligo): 0%
% exon skipping (Femto) (dystrophin exon 51; 20 μM DMD oligo): 4%

M23D: PMO 5′-GGCCAAACCTCGGCTTACCTGAAAT-3′ (SEQ ID NO: 3) that induces exon 23 skipping of mouse dystrophin (all phosphorodiamidate morpholino (PMO); further chemistry not fully specified)
exon 23 skip (dystrophin exon 23; 500 nM M23D alone (0 nM conjugate), Example 3): 5%
exon 23 skip activity (dystrophin exon 23; 500 nM M23D alone, Example 8, FIG. 20C): no exon skip activity
